Laboratory results: US11432549B2, “Carbamoyl triazolinone based herbicide combinations and method of use” (Arysta LifeScience Corporation, priority 2009, dated 2022)
Like-named read-outs stand apart in the source and are kept apart here.

Tests used:
St. Augustine-Sapphire = details: in vivo
Description: (§1) Containers were watered as needed based on species and water usage. The greenhouse was heated to keep temperatures above 50° F. (10° C.) and ventilated as needed to keep temperatures below 100° F. (38° C.). Typical daytime temperatures in the greenhouse were 80-90° F. (27-32° C.) and nighttime temperatures were between 50-60° F. (10-16° C.). The soil employed was Promix BX potting soil. Overall moisture conditions were normal and the closest weather station was on-site. Conditions and equipment employed in this Example are tabulated below in Tables 5-1 and 5-2.
(§2) All containers were moved outdoors from the greenhouse and arranged in blocks by treatment for the herbicide applications. A single spray application was applied to each block containing four repetitions of each species for each treatment. Plants were then immediately returned to the greenhouse and irrigated with approximately ¼″ water 1-3 hrs after treatment with a hose end sprayer. Only the Poa plants were trimmed with scissors two days prior to treatment at a height of approximately 3 inches.
(§3) Transplanted tillering Kentucky Bluegrass was 5 to 6 months old, transplanted Poa annua was 5 to 6 months old. Tall fescue was seeded into the crabgrass pots. St. Augustine plants (Floratam and Saphire) were shipped from Port St. Lucie, Fla. Only two replicates of Saphire St. Augustine grass were used due to plant availability.
(§4) Referring to FIGS. 2A-B, 3A-C, 4A-C, and 5A-D, all ratings of injury or bleaching are based on a scale from 1 to 9. […] Any bleaching measurement 4 and above was considered unacceptable for desirable turf species. In injury measurements, 1 indicates no injury while 9 indicates a dead plant. Any injury measurement 4 and above was considered unacceptable for desirable turf species). Density correlates with percent cover where 1 indicates no grass while 9 indicates a full pot.
(§5) Replications employed include 4, Untreated treatments: 1, Design: Randomized Complete Block, Treatment units: US standard, Treated plot size Width: 4 feet, Treated plot size Length: 4 feet, Application volume: 50 gal/ac, Mix size: 0.5562 liters, Mix overage: 100%, Format definitions: G-All7.DEF, G-All7.FRM.
(§6) In evaluating synergism, the data from Example 5 above were converted to % of control. This was done based on the data provided on a 1-9 scale detailed in Example 5. Expected values were computed from the % of control data by the formula for expected control=[…], where A is the % of control value for herbicide A alone and B is the % of control value for herbicide B alone.

St. Augustine-Floratum = details: St. Augustine Floratam
Description: as §1, §2, §3, §4, §5, §6

Crabgrass sp. = assay: Ex 5/7 greenhouse spray, bleaching/injury/density ratings; assay type: in vivo; details: Crabgrass
Description: as §1, §2, §3, §4, §5, §6

Green Foxtail = assay: Ex 5/7 greenhouse spray, bleaching/injury ratings; assay type: in vivo; details: Green Foxtail
Description: as §1, §2, §4, §5, §6

Poa annua = assay: Ex 5/7 greenhouse spray, bleaching/injury ratings; assay type: in vivo; details: Poa
Description: as §1, §2, §3, §4, §5, §6

Digitaria ciliaris = assay: Ex 1 pot test, visual % damage; assay type: in vivo
[1] = Days After First/Last Applic. 41 41, Trt-Eval Interval 31 DA-A

## CC(C)c1nn(C(=O)NC(C)(C)C)c(=O)n1N [2 Amicarbazone]
St. Augustine-Sapphire
  TurfQuality: 7.0 a
St. Augustine-Floratum; 6 DA-A
  Bleaching: 1.0 a
St. Augustine-Floratum; 7 DA-A
  Bleaching: 1.0 c
St. Augustine-Floratum; 10 DA-A
  Bleaching: 1.0 c
St. Augustine-Floratum; 14 DA-A
  Bleaching: 1.0 c
St. Augustine-Floratum; 16 DA-A
  Bleaching: 1.0 e
St. Augustine-Floratum; 20 DA-A
  Bleaching: 1.0 b
St. Augustine-Floratum; 31 DA-A
  Bleaching: 1.0 c
St. Augustine-Floratum; [1]
  Bleaching: 1.0 a
  TurfQuality: 6.8 bc
Crabgrass sp.; 6 DA-A
  Bleaching: 1.3 f
  Injury: 1.5
Crabgrass sp.; 7 DA-A
  Bleaching: 1.0 c
  Injury: 1.0 e
Crabgrass sp.; 10 DA-A
  Bleaching: 1.0 c
Crabgrass sp.; 14 DA-A
  Bleaching: 1.0 c
  Injury: 1
Crabgrass sp.; 16 DA-A
  Bleaching: 1.3 c
  Injury: 1.3
Crabgrass sp.; 20 DA-A
  Bleaching: 1.3
  Injury: 1.3 c
Crabgrass sp.; 24 DA-A
  % Crab Cvr: 7.8 a %
  Injury: 1.5 c
Crabgrass sp.; 31 DA-A
  % Crab Cvr: 8.3 a %
  Bleaching: 1.0 b
Crabgrass sp.; 41 DA-A
  % Crab Cvr: 9.0 a %
  Bleaching: 1.0 a
Green Foxtail; 6 DA-A
  Injury: 1.5 f
Green Foxtail; 7 DA-A
  Injury: 1.5 c
Green Foxtail; 10 DA-A
  Bleaching: 1.0 c
Green Foxtail; 14 DA-A
  Bleaching: 1
  Injury: 1.3
Green Foxtail; 16 DA-A
  Bleaching: 1
  Injury: 1.8
Green Foxtail; 20 DA-A
  Bleaching: 1.3 c
  Injury: 1.8
Green Foxtail; 24 DA-A
  Injury: 2
Green Foxtail; 31 DA-A
  Bleaching: 3.0 a
  Injury: 2.8
Poa annua; 6 DA-A
  Bleaching: 1.0 a
Poa annua; 7 DA-A
  Bleaching: 1.0 a
Poa annua; 10 DA-A
  Injury: 1.0 e
Poa annua; 14 DA-A
  Bleaching: 1.0 b
  Injury: 1.8
Poa annua; 16 DA-A
  Bleaching: 1.0 b
  Injury: 2.5
Poa annua; 20 DA-A
  Bleaching: 1.0 a
  Injury: 2.5
Poa annua; 24 DA-A
  Injury: 2.5 cd
Poa annua; 31 DA-A
  Injury: 3.3 c
Poa annua; [1]
  Injury: 3.8 c

## CC(C)c1nn(C(=O)NC(C)(C)C)c(=O)n1N [3 Amicarbazone]
St. Augustine-Sapphire
  TurfQuality: 7.5 a
St. Augustine-Floratum; 6 DA-A
  Bleaching: 1.0 a
St. Augustine-Floratum; 7 DA-A
  Bleaching: 1.0 c
St. Augustine-Floratum; 10 DA-A
  Bleaching: 1.0 c
St. Augustine-Floratum; 14 DA-A
  Bleaching: 1.0 c
St. Augustine-Floratum; 16 DA-A
  Bleaching: 1.3 e
St. Augustine-Floratum; 20 DA-A
  Bleaching: 1.3 b
St. Augustine-Floratum; 31 DA-A
  Bleaching: 1.0 c
St. Augustine-Floratum; [1]
  Bleaching: 1.0 a
  TurfQuality: 7.3 ab
Crabgrass sp.; 6 DA-A
  Bleaching: 1.0 f
  Injury: 1
Crabgrass sp.; 7 DA-A
  Bleaching: 1.0 c
  Injury: 1.0 e
Crabgrass sp.; 10 DA-A
  Bleaching: 1.0 c
Crabgrass sp.; 14 DA-A
  Bleaching: 1.0 c
  Injury: 1
Crabgrass sp.; 16 DA-A
  Bleaching: 1.0 c
  Injury: 1.5
Crabgrass sp.; 20 DA-A
  Bleaching: 1
  Injury: 1.5 c
Crabgrass sp.; 24 DA-A
  % Crab Cvr: 6.3 b %
  Injury: 1.5 c
Crabgrass sp.; 31 DA-A
  % Crab Cvr: 6.3 b %
  Bleaching: 1.0 b
Crabgrass sp.; 41 DA-A
  % Crab Cvr: 6.8 b %
  Bleaching: 1.0 a
Green Foxtail; 6 DA-A
  Injury: 3.8 de
Green Foxtail; 7 DA-A
  Injury: 3.5 b
Green Foxtail; 10 DA-A
  Bleaching: 1.0 c
Green Foxtail; 14 DA-A
  Bleaching: 1
  Injury: 2.5 f
Green Foxtail; 16 DA-A
  Bleaching: 1
  Injury: 2.8 cd
Green Foxtail; 20 DA-A
  Bleaching: 1.3 c
  Injury: 3.5 cd
Green Foxtail; 24 DA-A
  Injury: 3.8 c
Green Foxtail; 31 DA-A
  Bleaching: 3.3 a
  Injury: 5.3 bc
Poa annua; 6 DA-A
  Bleaching: 1.0 a
Poa annua; 7 DA-A
  Bleaching: 1.0 a
Poa annua; 10 DA-A
  Injury: 3.5 bc
Poa annua; 14 DA-A
  Bleaching: 1.8 b
  Injury: 4.8 b
Poa annua; 16 DA-A
  Bleaching: 2.0 ab
  Injury: 5.0 bc
Poa annua; 20 DA-A
  Bleaching: 2.0 a
  Injury: 5.5 c
Poa annua; 24 DA-A
  Injury: 5.3 b
Poa annua; 31 DA-A
  Injury: 7.0 ab
Poa annua; [1]
  Injury: 7.5 ab

## CCc1cccc(C)c1N(COC(C)C)C(=O)CCl [Propisochlor, 2-chloro-N-(2-ethyl-6-methylphenyl)-N-[(1-methylethoxy)methyl]acetamide]
Digitaria ciliaris; 5 DAT, all tested dose rate, one-leaf stage
  weeding effect index: less than 50%
Digitaria ciliaris; single application 50 g/ha, 5 DAT
  percentage control: 28%
Digitaria ciliaris; single application 50 g/ha, 8 DAT
  percentage control: 70%
Digitaria ciliaris; single application 50 g/ha, 14 DAT
  percentage control: 76%
Digitaria ciliaris; single application 50 g/ha, 21 DAT
  percentage control: 88%
Digitaria ciliaris; single application 50 g/ha, 28 DAT
  percentage control: 82%
Digitaria ciliaris; single application 100 g/ha, 5 DAT
  percentage control: 42%
Digitaria ciliaris; single application 100 g/ha, 8 DAT
  percentage control: 78%
Digitaria ciliaris; single application 100 g/ha, 14 DAT
  percentage control: 86%
Digitaria ciliaris; single application 100 g/ha, 21 DAT
  percentage control: 94%
Digitaria ciliaris; single application 100 g/ha, 28 DAT
  percentage control: 92%
Digitaria ciliaris; single application 200 g/ha, 5 DAT
  percentage control: 44%
Digitaria ciliaris; single application 200 g/ha, 8 DAT
  percentage control: 80%
Digitaria ciliaris; single application 200 g/ha, 14 DAT
  percentage control: 90%
Digitaria ciliaris; single application 200 g/ha, 21 DAT
  percentage control: 98%
Digitaria ciliaris; single application 200 g/ha, 28 DAT
  percentage control: 98%
